Experimental findings from publication PMC5433425 (PeerJ, 2017) are described below.

Data set [1] relates to Acinetobacter baumannii ATCC19606T. Description: MIC, antibacterial specificity. Type of data set: cell-based.
Data set [2] relates to Klebsiella pneumoniae FF4891. Description: MIC, antibacterial specificity. Type of data set: cell-based.
For data set [3], the system named is Staphylococcus aureus ATCC25923. Kind of data set: MIC, antibacterial specificity. Type of data set: cell-based.
In data set [4] the test system is Mycobacterium smegmatis mc2155 ATCC700084T. Description: MIC, antibacterial specificity. Type of data set: cell-based.
For a further data set, the system named is Mycobacterium avium 104. Description: MIC, antibacterial specificity. Type of data set: cell-based.
For data set [5], the system named is Mycobacterium tuberculosis H37Rv ATCC27294T. Kind of data set: MIC, antibacterial specificity. Type of data set: cell-based.
A short description of data set [6]: Cytotoxicity, AlamarBlue method. Type of data set: cell-based, human. Particulars: human. The method in brief: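 Macrophages derived from healthy-donor PBMC monocytes (5 × 10^4 cells/well) were treated with compound for 72 h at 37 °C. Viability was read by AlamarBlue (10%, overnight, 540/590 nm fluorescence). Cytotoxicity was read as LDH release in serum-free medium, with specific lysis = (treated − spontaneous)/(maximum − spontaneous) × 100.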
(Resazurin is reduced to fluorescent resorufin, in cell work by metabolically active cells.)

Converted amounts (≈) assume the structure as drawn.

For the compound `CCCOc1ccc(-c2cc(OCCN3CCNCC3)c3ccccc3n2)cc1` [PQQ4R, 4-(2-(piperazin-1-yl)ethoxy)-2-(4-propoxyphenyl) quinolone], the MIC in data set [1] was 128 µg/mL (≈ 327 µM); in data set [2] it was greater than 256 µg/mL; in data set [3], 50 µg/mL (≈ 128 µM); in data set [4] it was 32 µg/mL (≈ 81.7 µM); with Mycobacterium avium 104, 32 µg/mL (≈ 81.7 µM); in data set [5], 32 µg/mL (≈ 81.7 µM).

In the case of `CN(C)CCCN1c2ccccc2Sc2ccc(Cl)cc21` [CPZ, chlorpromazine], in data set [6], the cytotoxic concentration (CC50) at 3 days is 22.2 µM and the CC90 at 3 days was determined as 37 µM.

The MIC is the least concentration at which growth counts as inhibited. The term CC50 denotes the concentration that lowers cell viability or growth by half.
